In ChEMBL document CHEMBL1122911, “Synthesis and antitumor activity of tropolone derivatives. 2” (1985):
Converted amounts (≈) assume the structure as drawn. “And” between values parts separate entries of the source, which are not always exact repeats. Identical values can stand only once. The source made the active and inactive calls. The calls are words filed in the database; no cut-off is given here.

How the values were obtained:
[1] = In vitro inhibitory activity against growth of KB cells; assay type: functional, Homo sapiens; settings: for IC50: Homo sapiens, KB, read-out: ID50 (the source's name)
[2] = tested on: Mus musculus; experiment: Compound was tested for inhibitory activity against P388 leukemia in mice at 400 mg/kg; assay type: functional, organism-based; parameters: dose 400 mg/kg
[3] = tested on: Mus musculus; experiment: In vivo antitumor activity against leukemia P388 in mice after intraperitoneal administration at a dose of 200 mg/kg once a day for 1 and 5 days; assay type: functional
[4] = tested on: Mus musculus; experiment: In vivo antitumor activity against leukemia P388 in mice after intraperitoneal administration at a dose of 100 mg/kg once a day for 1 and 5 days; assay type: functional
[5] = tested on: Mus musculus; experiment: In vivo antitumor activity against leukemia P388 in mice after intraperitoneal administration at a dose of 400 mg/kg once a day for 1 and 5 days; assay type: functional
[6] = tested on: Mus musculus; experiment: In vivo antitumor activity against leukemia P388 in mice after intraperitoneal administration at a dose of 50 mg/kg once a day for 1 and 5 days; assay type: functional
[7] = tested on: Mus musculus; experiment: In vivo antitumor activity against leukemia P388 in mice after intraperitoneal administration of the compound at a dose of 200 mg/kg once a day for 1 and 5 days; assay type: functional
[8] = tested on: Mus musculus; experiment: In vivo antitumor activity against leukemia P388 in mice after intraperitoneal administration once a day for 1 and 5 days; assay type: functional
[9] = tested on: Mus musculus; experiment: In vivo antitumor activity against leukemia P388 in mice after intraperitoneal administration at a dose of 12.5 mg/kg once a day for 1 and 5 days; assay type: functional
[10] = tested on: Mus musculus; experiment: In vivo antitumor activity against leukemia P388 in mice after intraperitoneal administration at a dose of 25 mg/kg once a day for 1 and 5 days; assay type: functional

Structure (SMILES)	ID50 [1] [µM]	IC50 [1] [µg/mL]	Activity [2]	other results
S=c1oc2ccc(Cl)cc2n1CC1OCCc2ccccc21 (stereo unspecified)	28	8.9 (≈ 26.8 µM)	inactive	–
COc1ccc(C(NC(=O)c2ccccc2)c2ccc(C(C)C)cc(=O)c2O)cc1 (stereo unspecified)	4.2	1.7 (≈ 4.21 µM)	–	T/C [3]: 110%; T/C [4]: 104%; T/C [5]: 131%
COc1ccc(C(c2oc(CO)cc(=O)c2O)c2oc(CO)cc(=O)c2O)cc1	249	100 (≈ 249 µM)	–	T/C [3]: 102%; T/C [4]: 98%; T/C [6]: 102%
CC(=O)C1=C(O)CN(C2OCCc3ccccc32)C1=O (stereo unspecified)	366	> 100	inactive	–
O=C1c2ccccc2CC1C1OCCc2ccccc21 (stereo unspecified)	144	38 (≈ 144 µM)	inactive	–
Oc1ccc(C2OCCc3ccccc32)cc1 (stereo unspecified)	119	27 (≈ 119 µM)	inactive	–
Clc1ccc2oc(SCC3OCCc4ccccc43)nc2c1 (stereo unspecified)	18	6.1 (≈ 18.4 µM)	inactive	–
COc1ccc(C(NC(C)=O)c2ccc(C(C)C)cc(=O)c2O)cc1 (stereo unspecified)	18	6 (≈ 17.6 µM)	–	T/C [3]: 92%; T/C [4]: 92%; T/C [5]: 108%
O=c1oc2ccccc2c(O)c1C1OCCc2ccccc21 (stereo unspecified)	340	100 (≈ 340 µM)	inactive	–
Oc1ncc(C2OCCc3ccccc32)c(O)n1 (stereo unspecified)	410	> 100	inactive	–
S=c1oc2ccc(Cl)cc2n1C1OCCc2ccccc21 (stereo unspecified)	268	85 (≈ 267 µM)	inactive	–
Cc1cc(O)c(C(C)C)cc1C1OCCc2ccccc21 (stereo unspecified)	57	16 (≈ 56.7 µM)	inactive	–
COc1ccc(C(c2ccc(C(C)C)cc(=O)c2O)n2c(=S)oc3ccccc32)cc1 (stereo unspecified)	8.5	3.7 (≈ 8.53 µM)	–	T/C [7]: 105%; T/C [4]: 113%; T/C [5]: 133%
O=C1c2ccccc2CCC1C1OCCc2ccccc21 (stereo unspecified)	151	42 (≈ 151 µM)	inactive	–
Oc1ccccc1C1OCCc2ccccc21 (stereo unspecified)	90	20.5 (≈ 90.6 µM)	inactive	–
O=C(c1ccccc1)C(c1ccccc1)C1OCCc2ccccc21 (stereo unspecified)	305	> 100	inactive	–
CC(C)c1ccc(C(Sc2ccccc2)c2ccccc2)c(O)c(=O)c1 (stereo unspecified)	1.4	0.5 (≈ 1.38 µM)	–	T/C [3]: 135%; T/C [4]: 108%; T/C [5]: 113%
COC(=O)c1ccc(O)c(C2OCCc3ccccc32)c1 (stereo unspecified)	352	> 100	inactive	–
Cc1cc(O)c(C(C)C)cc1C(c1ccccc1)c1cc(C(C)C)c(O)cc1C	34	13 (≈ 33.5 µM)	–	T/C [8]: 102% and 100% and 87%
CCOC(c1ccc(OC)cc1)c1ccc(C(C)C)cc(=O)c1O (stereo unspecified)	–	0.5 (≈ 1.52 µM)	–	T/C [9]: 96%; T/C [6]: 119%; T/C [10]: 109%
CCOC(c1ccccc1)c1ccc(C(C)C)cc(=O)c1O (stereo unspecified)	–	–	–	T/C [8]: 96%; T/C [10]: 97%
CC1(C)CC(=O)C(C2OCCc3ccccc32)=C(O)C1 (stereo unspecified)	368	> 100	inactive	–
